# Test results published in US20250163057A1, “DCN-1 MODULATING COMPOUNDS AND METHODS OF USE THEREOF” (Cellarity, Inc., priority 2023, published 2025).
# Molecular target: DCN1 protein (Homo sapiens (Human), UniProt Q96GG9)
# Test: Intact Protein MS Analysis with the RapidFire-TOF System (covalent adduct formation)
# Type: binding
# Details: MS Emax; 400 nM DCN1, 3 hours at room temperature
# Procedure: An MS assay was performed to evaluate the ability of the compounds to covalently modify DCN-1.
# DCN1 protein, His-TEV-DCN1, were expressed in E. Coli. The His-tagged protein was first purified with an Ni-NTA column. The His-tag was cleaved using His-tag TEV protease and the His-tags were removed using a second Ni-NTA column. Protein purity was verified with SDS-PAGE and intact MS. DCN1 was dissolved in a buffer containing 25 mM Tris-HCl, 200 mM NaCl, and 1 mM DTT at 400 nM. 11 concentrations of compounds were added to the DCN1 solution and incubated at room temperature for 3 hours, unless otherwise specified. The reaction plates were quenched by adding 0.2% formic acid. […] The cartridge was re-equilibrated with loading buffer for 1 second before collection of the next sample. The Q-TOF was operated in TOF-only positive ionization mode set to the following parameters: Gas Temp=350 C, Drying Gas=7 l/min, Nebulizer=50 psi, Sheath Gas Temp=400 C, Sheath Gas Flow=12 l/min, Vcap=4000 V, Nozzle Voltage=1000 V, Fragmentor=125 V, Skimmer=65 V and Oct 1 RF Vpp=750V. Raw MS data files were deconvoluted and analyzed using the Agilent MassHunter Bioconfirm software package to identify both parent protein and expected compound adduct mass signatures.
# Sequence of DCN1 protein (Q96GG9 whole entry): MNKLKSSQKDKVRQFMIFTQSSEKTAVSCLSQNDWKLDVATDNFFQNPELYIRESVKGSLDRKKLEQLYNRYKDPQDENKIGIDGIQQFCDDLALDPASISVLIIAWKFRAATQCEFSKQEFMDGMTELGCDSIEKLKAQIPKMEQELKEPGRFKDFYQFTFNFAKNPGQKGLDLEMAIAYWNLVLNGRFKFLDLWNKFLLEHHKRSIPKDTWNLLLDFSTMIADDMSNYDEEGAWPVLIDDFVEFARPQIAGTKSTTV
row,SMILES,% Adduct Formation
1,C=C(CN(C)C)C(=O)N[C@H](C)c1nn(-c2ccccc2)c2c1[C@H](c1ccc(F)cc1)[C@H](NC(=O)c1cccc(C(F)(F)F)c1)C(=O)N2CC (mixture of isomers) [Compound I-213],+++ (MS Emax % adduct formation greater than 80.0 and less than or equal to 100.0)
2,CCN1C(=O)[C@@H](NC(=O)c2cccc(C(F)(F)F)c2)[C@@H](c2ccc(F)cc2)c2c([C@@H](C)NS(=O)(=O)CCl)nn(-c3ccccc3)c21 (mixture of isomers) [Compound I-215],+ (MS Emax % adduct formation greater than or equal to 0.0 and less than or equal to 30.0)
3,CCN1C(=O)[C@@H](NC(=O)c2cccc(C(F)(F)F)c2)[C@@H](c2ccc(F)cc2)c2c([C@@H](C)NC(=O)C3=CCC3)nn(-c3ccccc3)c21 (mixture of isomers) [Compound I-237],+ (MS Emax % adduct formation greater than or equal to 0.0 and less than or equal to 30.0)
4,C/C=C/C(=O)N[C@H](C)c1nn(-c2ccccc2)c2c1[C@H](c1ccc(F)cc1)[C@H](NC(=O)c1cccc(C(F)(F)F)c1)C(=O)N2CC (mixture of isomers) [Compound I-238],+ (MS Emax % adduct formation greater than or equal to 0.0 and less than or equal to 30.0)
5,CCN1C(=O)[C@@H](NC(=O)c2cccc(C(F)(F)F)c2)[C@@H](c2ccc(F)cc2)c2c(CNC(=O)C(Cl)Cl)nn(-c3ccccc3)c21 (racemic) [Compound I-169],+ (MS Emax % adduct formation greater than or equal to 0.0 and less than or equal to 30.0)
6,CCN1C(=O)[C@@H](NC(=O)c2cccc(C(F)(F)F)c2)[C@@H](c2ccc(F)cc2)c2c(CN3C(=O)C=CC3=O)nn(-c3ccccc3)c21 (racemic) [Compound I-170],+ (MS Emax % adduct formation greater than or equal to 0.0 and less than or equal to 30.0)
7,CCN1C(=O)[C@@H](NC(=O)c2cccc(C(F)(F)F)c2)[C@@H](c2ccc(F)cc2)c2c(NC(=O)COc3c(F)c(F)cc(F)c3F)nn(-c3ccccc3)c21 (racemic) [Compound I-176],+ (MS Emax % adduct formation greater than or equal to 0.0 and less than or equal to 30.0)
8,CCN1C(=O)[C@@H](NC(=O)c2cccc(C(F)(F)F)c2)[C@@H](c2ccc(F)cc2)c2c(CNC(=O)COc3c(F)c(F)cc(F)c3F)nn(-c3ccccc3)c21 (racemic) [Compound I-182],+ (MS Emax % adduct formation greater than or equal to 0.0 and less than or equal to 30.0)
9,CCN1C(=O)[C@@H](NC(=O)c2cccc(C(F)(F)F)c2)[C@@H](c2ccc(F)cc2)c2c(CNC(=O)/C=C/CN3CCOCC3)nn(-c3ccccc3)c21 (racemic) [Compound I-183],+ (MS Emax % adduct formation greater than or equal to 0.0 and less than or equal to 30.0)
10,C=CS(=O)(=O)Nc1nn(-c2ccccc2)c2c1[C@H](c1ccc(F)cc1)[C@H](NC(=O)c1cccc(C(F)(F)F)c1)C(=O)N2CC (racemic) [Compound I-187],+++ (MS Emax % adduct formation greater than 80.0 and less than or equal to 100.0)
11,"C=C(C(=O)N(C)C)c1nn(-c2ccccc2)c2c1[C@H](c1ccc(F)cc1)[C@H](NC(=O)c1cccc(C(F)(F)F)c1)C(=O)N2CC (racemic) [Compound I-188, rac-N-((4R,5R)-3-(3-(dimethylamino)-3-oxoprop-1-en-2-yl)-7-ethyl-4-(4-fluorophenyl)-6-oxo-1-phenyl-4,5,6,7-tetrahydro-1H-pyrazolo[3,4-b]pyridine-5-yl)-3-(trifluoromethyl)benzamide]",+ (MS Emax % adduct formation greater than or equal to 0.0 and less than or equal to 30.0)
12,"CCN1C(=O)[C@@H](NC(=O)c2cccc(C(F)(F)F)c2)[C@@H](c2ccc(F)cc2)c2c(C=O)nn(-c3ccccc3)c21 (racemic) [Compound I-189, rac-N-((4R,5R)-7-ethyl-4-(4-fluorophenyl)-3-formyl-6-oxo-1-phenyl-4,5,6,7-tetrahydro-1H-pyrazolo[3,4-b]pyridine-5-yl)-3-(trifluoromethyl)benzamide]",+ (MS Emax % adduct formation greater than or equal to 0.0 and less than or equal to 30.0)
13,CCN1C(=O)[C@@H](NC(=O)c2cccc(C(F)(F)F)c2)[C@@H](c2ccc(F)cc2)c2c(CN3CC=CC3=O)nn(-c3ccccc3)c21 (racemic) [Compound I-193],+ (MS Emax % adduct formation greater than or equal to 0.0 and less than or equal to 30.0)
14,"CCN1C(=O)[C@@H](NC(=O)c2cccc(C(F)(F)F)c2)[C@@H](c2ccc(F)cc2)c2c(N3C=CC3=O)nn(-c3ccccc3)c21 (racemic) [Compound I-194, N-((4S,5S)-7-ethyl-4-(4-fluorophenyl)-6-oxo-3-(2-oxoazet-1(2H)-yl)-1-phenyl-4,5,6,7-tetrahydro-1H-pyrazolo[3,4-b]pyridine-5-yl)-3-(trifluoromethyl)benzamide]",+ (MS Emax % adduct formation greater than or equal to 0.0 and less than or equal to 30.0)
15,"C=C(C(=O)OCC)c1nn(-c2ccccc2)c2c1[C@H](c1ccc(F)cc1)[C@@H](NC(=O)c1cccc(C(F)(F)F)c1)C(=O)N2CC (racemic) [Compound I-195, rac-ethyl 2-((4R,5S)-7-ethyl-4-(4-fluorophenyl)-6-oxo-1-phenyl-5-(3-(trifluoromethyl)benzamido)-4,5,6,7-tetrahydro-1H-pyrazolo[3,4-b]pyridine-3-yl)acrylate]",+ (MS Emax % adduct formation greater than or equal to 0.0 and less than or equal to 30.0)
16,CCN1C(=O)[C@@H](NC(=O)c2cccc(C(F)(F)F)c2)[C@@H](c2ccc(F)cc2)c2c(CNS(=O)(=O)CCl)nn(-c3ccccc3)c21 (racemic) [Compound I-198],+ (MS Emax % adduct formation greater than or equal to 0.0 and less than or equal to 30.0)
17,"C#Cc1nn(-c2ccccc2)c2c1[C@H](c1ccc(F)cc1)[C@H](NC(=O)c1cccc(C(F)(F)F)c1)C(=O)N2CC (racemic) [Compound I-199, N-((4S,5S)-7-ethyl-3-ethynyl-4-(4-fluorophenyl)-6-oxo-1-phenyl-4,5,6,7-tetrahydro-1H-pyrazolo[3,4-b]pyridine-5-yl)-3-(trifluoromethyl)benzamide]",+ (MS Emax % adduct formation greater than or equal to 0.0 and less than or equal to 30.0)
18,CCN1C(=O)[C@@H](NC(=O)c2cccc(C(F)(F)F)c2)[C@@H](c2ccc(F)cc2)c2c(CN(C)C(=O)C3=CCC3)nn(-c3ccccc3)c21 (racemic) [Compound I-200],+ (MS Emax % adduct formation greater than or equal to 0.0 and less than or equal to 30.0)
19,"C=C(C(=O)O)c1nn(-c2ccccc2)c2c1[C@H](c1ccc(F)cc1)[C@@H](NC(=O)c1cccc(C(F)(F)F)c1)C(=O)N2CC (racemic) [Compound I-208, rac-2-((4R,5S)-7-ethyl-4-(4-fluorophenyl)-6-oxo-1-phenyl-5-(3-(trifluoromethyl)benzamido)-4,5,6,7-tetrahydro-1H-pyrazolo[3,4-b]pyridine-3-yl)acrylic acid]",+ (MS Emax % adduct formation greater than or equal to 0.0 and less than or equal to 30.0)
20,CCN1C(=O)[C@@H](NC(=O)c2cccc(C(F)(F)F)c2)[C@@H](c2ccc(F)cc2)c2c([C@H](C)NS(=O)(=O)CCl)nn(-c3ccccc3)c21 (racemic) [Compound I-214],+ (MS Emax % adduct formation greater than or equal to 0.0 and less than or equal to 30.0)
21,"CCN1C(=O)[C@@H](NC(=O)c2cccc(C(F)(F)F)c2)[C@@H](c2ccc(F)cc2)c2c(C(CCl)C(=O)N(C)C)nn(-c3ccccc3)c21 (mixture of isomers) [Compound I-216, rac-N-((4R,5R)-3-(3-chloro-1-(dimethylamino)-1-oxopropan-2-yl)-7-ethyl-4-(4-fluorophenyl)-6-oxo-1-phenyl-4,5,6,7-tetrahydro-1H-pyrazolo[3,4-b]pyridine-5-yl)-3-(trifluoromethyl)benzamide]",+ (MS Emax % adduct formation greater than or equal to 0.0 and less than or equal to 30.0)
22,CCN1C(=O)[C@@H](NC(=O)c2cccc(C(F)(F)F)c2)[C@@H](c2ccc(F)cc2)c2c(CNC(=O)/C(C#N)=C/C3CC3)nn(-c3ccccc3)c21 (racemic) [Compound I-217],+ (MS Emax % adduct formation greater than or equal to 0.0 and less than or equal to 30.0)
23,CCN1C(=O)[C@@H](NC(=O)c2cccc(C(F)(F)F)c2)[C@@H](c2ccc(F)cc2)c2c(CN(C)C(=O)/C=C/C(F)(F)F)nn(-c3ccccc3)c21 (racemic) [Compound I-219],+ (MS Emax % adduct formation greater than or equal to 0.0 and less than or equal to 30.0)
24,CCN1C(=O)[C@@H](NC(=O)c2cccc(C(F)(F)F)c2)[C@@H](c2ccc(F)cc2)c2c(CNC(=O)/C=C/CN(C)C)nn(-c3ccccc3)c21 (racemic) [Compound I-220],+ (MS Emax % adduct formation greater than or equal to 0.0 and less than or equal to 30.0)
25,CCN1C(=O)[C@@H](NC(=O)c2cccc(C(F)(F)F)c2)[C@@H](c2ccc(F)cc2)c2c(CNC(=O)/C=C/C(F)(F)F)nn(-c3ccccc3)c21 (racemic) [Compound I-221],+ (MS Emax % adduct formation greater than or equal to 0.0 and less than or equal to 30.0)
